No end group written: not given here.
Key:
CFPAC-1 cells [1] = assay: Inhibition of ligand-induced EMT by JAK or MEK inhibitor; assay type: cell-based, human; conditions: JAK inhibitor 0.25 μM
Description: Supernatents were micro-centrifuged at max speed, 4° C. for 10 minutes. […] SDS PAGE was run using a Bis-Tris gel system (Invitrogen NuPAGE) with MOPS buffer (Invitrogen NP0001), transferred onto nitrocellulose using the iBLOT system (Invitrogen) and blocked in PBS-T (0.1% Tween 20), 5% non-fat milk or BSA in guidance with primary Ab supplier requirements. […] Secondary HRP labeled antibodies used were: anti Rabbit IgG HRP (Amersham NA934) 1:5000 dilution; anti Mouse IgG HRP (Sigma A2304) 1:2000 dilution. Membranes were visualized using the Supersignal ELISA Femto Maximum Sensitivity Substrate (Pierce).

pancreatic cancer = conditions: phase III, first-line, in combination with gemcitabine; cited from earlier work
[2] = tested on: advanced, treatment-refractory NSCLC; conditions: phase III, monotherapy, patients with advanced; cited from earlier work
CFPAC-1 cells [3] = assay: Induction of EMT by growth factors and cytokines, E-cadherin and vimentin immunoblotting; assay type: cell-based, human; conditions: CFPAC-1 cells treated 7 days with ligand
Description: The CFPAC1 cell line was cultured in DMEM media (Gibco #11960) supplemented with 10% FBS (Sigma), 2 mM L Glutamine (Gibco), at 37° C., 5% CO2. For 7 day treatments, cells were seeded on tissue culture plastic in complete growth media and allowed to attach overnight at cell densities that would provide approximately 60-80% confluence at end of experiment. Ligand and/or inhibitor was added the following day (Day 0) in complete growth media and incubated at 37° C., 5% CO2. Ligand source and concentrations used are as follows: [1] From R&D systems, SDF-1α (stromal derived factor-1 alpha) at 100 ng/ml, TRANCE (TNF-related activation induced cytokine) at 50 ng/ml, FGF1 (fibroblast growth factor acidic) at 10 ng/ml, FGF2 (fibroblast growth factor basic) at 10 ng/ml, BMP4 (bone morphogenetic protein 4) at 100 ng/ml, BMP7 (bone morphogenetic protein 7) at 100 ng/ml, IGF2 (insulin-like growth factor 2) at 100 ng/ml, OSM (Oncostatin M) at 100 ng/ml, NRG1 (Neuregulin-1) at 50 ng/ml, PDGFaa (Platelet derived growth factor a) at 50 ng/ml, PDGFbb (platelet derive growth factor b) at 30 ng/ml, Ang2 (Angiopoeitin 2) at 400 ng/ml, amphiregulin at 100 ng/ml, HMGB 1 (Human high-mobility group box 1 protein) at 50 ng/ml; [2] From Genscript, LIF (Leukemia inhibitory factor) at 20 ng/ml, GM-CSF (Granulocyte macrophage colony stimulating factor) at 25 ng/ml, M-CSF (Macrophage colony stimulating factor) at 50 ng/ml; [3] From Anaspec, PAR1 (Protease activated receptor 1 agonist) at 100 μM; PAR2 (Protease activated receptor 2 agonist; peptide SLIGKV-NH2, Cat. No. 60217-1) at 100 μM; PAR4 (Protease activated receptor […] agonist; peptide AYPGKF-NH2, Cat. No. 60218-1) at 100 μM; [4] From Peprotech, HGF (Hepatocyte Growth Factor) at 100 ng/ml; IL-31 (Interleukin-31) at 50 ng/ml, IL-33 (Interleukin-33) at 50 ng/ml, IL1-a (Interleukin-1 alpha) at 10 ng/ml, CTGF (Connective tissue growth factor) at 20 ng/ml, WISP1 (Wnt-1 inducible signaling pathway protein) at 20 ng/ml, PTHrP ([…] hormone-related protein) at 50 ng/ml, MCP1 (monocyte chemotactic protein-1) at 50 ng/ml; and [5] from Sigma, Fulvestrant at 1 μM. Fresh medium containing ligand and/or inhibitor was added 3-4 days after initial dose, and at Day 7 cells were harvested for western blot analysis.
Cells were harvested by washing once with PBS, and lysing on ice for 10 minutes with scraping (using a Cell Lifter, Corning Inc. #3008) in ice cold RIPA buffer (Sigma R0278) containing Protease inhibitor (Sigma P8340), Phosphatase inhibitors (Sigma P2850, P5726) and 200 μM Sodium Vanadate. Supernatents were micro-centrifuged at max speed, 4° C. for 10 minutes. Protein content was quantitated using the BCA method (Pierce #23225) and samples were normalized to total protein in Laemli buffer and heated at 100° C. for 10 minutes. SDS PAGE was run using a Bis-Tris gel system (Invitrogen NuPAGE) with MOPS buffer (Invitrogen NP0001), transferred onto nitrocellulose using the iBLOT system (Invitrogen) and blocked in PBS-T (0.1% Tween 20), 5% non-fat milk or BSA in guidance with primary Ab supplier requirements. All primary antibodies were incubated overnight at 4° C. in PBS-T (0.1% Tween 20) in either 5% non-fat milk or BSA, diluted to the following working dilutions: anti E Cadherin (Santa Cruz #sc-21791) 1:500 dilution; anti Vimentin (BD Biosciences #550513) 1:2000 dilution;); anti GAPDH HRP conjugate (Santa Cruz sc-25778) 1:1000 dilution; anti β-Actin (Sigma, A5441) 1:10,000 dilution. […]

CC(C)(C)c1nc2c3cc[nH]c(=O)c3c3cc(F)ccc3c2[nH]1 [JAK inhibitor]
Block of morphology change (CFPAC-1 cells [1]; CFPAC-1 cells treated with OSM 7 days, light microscopy): blocked the morphology change
Block of EMT process (CFPAC-1 cells [1]; OSM-triggered EMT, 7 days, MEK inhibitor 3 μM): could block EMT process

C#Cc1cccc(Nc2ncnc3cc(OCCOC)c(OCCOC)cc23)c1 [erlotinib, [6,7-bis(2-methoxyethoxy)-4-quinazolin-4-yl]-(3-ethynylphenyl) amine]
Survival (pancreatic cancer): improves survival
Survival, disease progression, lung cancer-related symptoms [2]: significantly prolonged survival, delayed disease progression and delayed worsening of lung cancer-related symptoms

AYPGKF-NH2 [PAR4 agonist AYPGKF-NH2, reference compound]
Induction of EMT (E-cadherin down, vimentin up) (CFPAC-1 cells [3]): Partial EMT

IGF2: insulin-like growth factor 2, R&D systems, 100 ng/ml
Induction of EMT (E-cadherin down, vimentin up) (CFPAC-1 cells [3]): Partial EMT

LIF: Leukemia inhibitory factor, Genscript, 20 ng/ml
Induction of EMT (E-cadherin down, vimentin up) (CFPAC-1 cells [3]): Partial EMT

SLIGKV-NH2 (UniProt P55085 37-42, looked up, fragment) [PAR2 agonist SLIGKV-NH2, reference compound]
Induction of EMT (E-cadherin down, vimentin up) (CFPAC-1 cells [3]): Partial EMT

Reference: patent US8642834B2, “Methods for the identification of agents that inhibit mesenchymal-like tumor cells or their formation” (OSI Pharmaceuticals, LLC, priority 2009, dated 2014)
